Laboratory results as given in patent publication US9809540B2, “Hydrobromide salt of N-(4-chloro-2-hydroxy-3-((3S)-3-piperidinylsulfonyl)phenyl-N'-(3-fluoro-2-methylphenyl)urea” (GlaxoSmithKline Intellectual Property (No.2) Limited, priority 2013, dated 2017).
In brackets after ≈: the same amount, converted by molar mass. Structures can show the parent of a compound that is named as a salt.

Legend:
[1] = Dissolution profiles (capsule) in pH1.6 simulated gastric fluid and pH 4 citrate buffer; assay type: physicochemical
Description: Dissolution profiles of the HBr salt (50 mg as free form) in a capsule compared with the free base in pH1.6 simulated gastric fluid and in pH 4 citrate buffer. The HBr salt is better.

[2] = Solubility in simulated gastric/intestinal fluids and pH media; assay type: physicochemical; details: for solubility at 0.5 h / solubility at 4 h / solubility at 24 h / solubility at 0.5 hr / solubility at 4 hr / solubility at 24 hr: thermodynamic from solid

## Cc1c(F)cccc1NC(=O)Nc1ccc(Cl)c(S(=O)(=O)[C@H]2CCCNC2)c1O [HBr Salt, hydrobromide salt of the enantiomer N-{4-chloro-2-hydroxy-3-[(3S)-3-piperidinylsulfonyl]phenyl}-N′-(3-fluoro-2-methylphenyl)urea]
[1]; 50 mg as free form in a capsule, pH1.6 simulated gastric fluid and pH 4 citrate buffer, FIGS. 1 and 2
  Dissolution profile: better
[1]; FIG. 1, low gastric pH
  Dissolution rate at low gastric pH: enhanced dissolution rate without gelling
[1]; FIG. 2, elevated gastric pH
  Rate of dissolution at an elevated gastric pH: greatest rate of dissolution
[1]; higher pH
  Dissolution profile at higher pH as compared to the free base: improved
[2]; Phares FaSSIF pH 6.5, 4 hr
  Solubility: 272 µg/mL
[2]; SGF (simulated gastric fluid), pH 1.6, simulated gastric fluid, Batch 1, SGF pH 1.6, 0.5 hr
  solubility at 0.5 h: 770 µg/mL
[2]; SGF (simulated gastric fluid), pH 1.6, simulated gastric fluid, Batch 1, SGF pH 1.6, 4 hr
  solubility at 4 h: 787 µg/mL
[2]; SGF (simulated gastric fluid), pH 1.6, simulated gastric fluid, Batch 1, SGF pH 1.6, 24 hr
  solubility at 24 h: 795 µg/mL
[2]; SGF (simulated gastric fluid), pH 1.6, simulated gastric fluid, Batch 2, SGF pH 1.6, 0.5 hr
  solubility at 0.5 h: 414 µg/mL
[2]; SGF (simulated gastric fluid), pH 1.6, simulated gastric fluid, Batch 2, SGF pH 1.6, 4 hr
  solubility at 4 h: 647 µg/mL
[2]; SGF (simulated gastric fluid), pH 1.6, simulated gastric fluid, Batch 2, SGF pH 1.6, 24 hr
  solubility at 24 h: 800 µg/mL
[2]; SGF (simulated gastric fluid), pH 1.6, simulated gastric fluid, Batch 3, SGF pH 1.6, 0.5 hr
  solubility at 0.5 h: 757 µg/mL
[2]; at higher pH's and in simulated intestinal fluids
  Solubility compared with the free base: higher than the free base
[2]; fasted-state simulated intestinal fluid (Phares FaSSIF), pH 6.5, fassif, Batch 1, Phares FaSSif pH 6.5, 0.5 hr
  solubility at 0.5 hr: 420 µg/mL
[2]; fasted-state simulated intestinal fluid (Phares FaSSIF), pH 6.5, fassif, Batch 1, Phares FaSSif pH 6.5, 4 hr
  solubility at 4 hr: 384 µg/mL
[2]; fasted-state simulated intestinal fluid (Phares FaSSIF), pH 6.5, fassif, Batch 1, Phares FaSSif pH 6.5, 24 hr
  solubility at 24 hr: 64 µg/mL
[2]; fasted-state simulated intestinal fluid (Phares FaSSIF), pH 6.5, fassif, Batch 2, Phares FaSSif pH 6.5, 0.5 hr
  solubility at 0.5 hr: 270 µg/mL
[2]; fasted-state simulated intestinal fluid (Phares FaSSIF), pH 6.5, fassif, Batch 2, Phares FaSSif pH 6.5, 4 hr
  solubility at 4 hr: 379 µg/mL
[2]; fasted-state simulated intestinal fluid (Phares FaSSIF), pH 6.5, fassif, Batch 2, Phares FaSSif pH 6.5, 24 hr
  solubility at 24 hr: 79 µg/mL
[2]; fasted-state simulated intestinal fluid (Phares FaSSIF), pH 6.5, fassif, Batch 3, Phares FaSSif pH 6.5, 0.5 hr
  solubility at 0.5 hr: 459 µg/mL
[2]; fasted-state simulated intestinal fluid (Phares FaSSIF), pH 6.5, fassif, Batch 3, Phares FaSSif pH 6.5, 4 hr
  solubility at 4 hr: 227 µg/mL
[2]; fasted-state simulated intestinal fluid (Phares FaSSIF), pH 6.5, fassif, Batch 3, Phares FaSSif pH 6.5, 24 hr
  solubility at 24 hr: 56 µg/mL
[2]; fed-state simulated intestinal fluid (Phares FeSSIF), fessif, Batch 1, Phares FeSSIF pH .5, 0.5 hr
  solubility at 0.5 hr: 838 µg/mL
[2]; fed-state simulated intestinal fluid (Phares FeSSIF), fessif, Batch 1, Phares FeSSIF pH .5, 4 hr
  solubility at 4 hr: 833 µg/mL
[2]; fed-state simulated intestinal fluid (Phares FeSSIF), fessif, Batch 1, Phares FeSSIF pH .5, 24 hr
  solubility at 24 hr: 788 µg/mL
[2]; fed-state simulated intestinal fluid (Phares FeSSIF), fessif, Batch 2, Phares FeSSIF pH .5, 0.5 hr
  solubility at 0.5 hr: 478 µg/mL
[2]; fed-state simulated intestinal fluid (Phares FeSSIF), fessif, Batch 2, Phares FeSSIF pH .5, 4 hr
  solubility at 4 hr: 846 µg/mL
[2]; fed-state simulated intestinal fluid (Phares FeSSIF), fessif, Batch 2, Phares FeSSIF pH .5, 24 hr
  solubility at 24 hr: 834 µg/mL
[2]; fed-state simulated intestinal fluid (Phares FeSSIF), fessif, Batch 3, Phares FeSSIF pH .5, 0.5 hr
  solubility at 0.5 hr: 724 µg/mL
[2]; fed-state simulated intestinal fluid (Phares FeSSIF), pH 6.5, fessif, Batch 3, Phares FeSSIF pH .5, 4 hr
  solubility at 4 hr: 841 µg/mL
[2]; fed-state simulated intestinal fluid (Phares FeSSIF), pH 6.5, fessif, Batch 3, Phares FeSSIF pH .5, 24 hr
  solubility at 24 hr: 340 µg/mL
[2]; higher pH
  Solubility at higher pH as compared to the free base: improved
[2]; pH 2, aqueous buffer, Batch 3, pH 2.0, 0.5 hr
  solubility at 0.5 h: 605 µg/mL
[2]; pH 2, aqueous buffer, Batch 3, pH 2.0, 4 hr
  solubility at 4 h: 635 µg/mL
[2]; pH 2, aqueous buffer, Batch 3, pH 2.0, 24 hr
  solubility at 24 h: 609 µg/mL
[2]; pH 2, aqueous buffer, pH 2.0, 24 hr
  solubility at 24 h: 609 µg/mL
[2]; pH 4, aqueous buffer, Batch 3, pH 4.0, 0.5 hr
  solubility at 0.5 h: 685 µg/mL
[2]; pH 4, aqueous buffer, Batch 3, pH 4.0, 4 hr
  solubility at 4 h: 670 µg/mL
[2]; pH 4, aqueous buffer, Batch 3, pH 4.0, 24 hr
  solubility at 24 h: 609 µg/mL
[2]; pH 4, aqueous buffer, pH 4.0, 4 hr
  solubility at 4 h: 670 µg/mL
[2]; pH 6, aqueous buffer, Batch 3, pH 6.0, 0.5 hr
  solubility at 0.5 h: 194 µg/mL
[2]; pH 6, aqueous buffer, Batch 3, pH 6.0, 4 hr
  solubility at 4 h: 13 µg/mL
[2]; pH 6, aqueous buffer, Batch 3, pH 6.0, 24 hr
  solubility at 24 h: 5 µg/mL
[2]; pH 8, aqueous buffer, Batch 3, pH 8.0, 0.5 hr
  solubility at 0.5 h: 52 µg/mL
[2]; pH 8, aqueous buffer, Batch 3, pH 8.0, 4 hr
  solubility at 4 h: 13 µg/mL
[2]; pH 8, aqueous buffer, Batch 3, pH 8.0, 24 hr
  solubility at 24 h: 8 µg/mL
[2]; pH 8, aqueous buffer, pH 8.0, 0.5 hr
  solubility at 0.5 h: 52 µg/mL
[2]; pH 8, aqueous buffer, pH 8.0, 4 hr
  solubility at 4 h: 13 µg/mL
[2]; pH 8, aqueous buffer, pH 8.0, 24 hr
  solubility at 24 h: 8 µg/mL
[2]; simulated gastric fluid (SGF), pH 1.6, simulated gastric fluid, Batch 3, SGF pH 1.6, 4 hr
  solubility at 4 hr: 795 µg/mL
[2]; simulated gastric fluid (SGF), pH 1.6, simulated gastric fluid, Batch 3, SGF pH 1.6, 24 hr
  solubility at 24 hr: 779 µg/mL
[2]; simulated intestinal fluids, compared with free base
  Solubility in simulated intestinal fluids over time: does reduce with time but is still much higher than the equivalent free base solubility

## Cc1c(F)cccc1NC(=O)Nc1ccc(Cl)c(S(=O)(=O)[C@H]2CCCNC2)c1O [Micronised free base, N-{4-chloro-2-hydroxy-3-[(3S)-3-piperidinylsulfonyl]phenyl}-N′-(3-fluoro-2-methylphenyl) urea, reference compound]
[2]; Phares FaSSIF pH 6.5, 0.5 hr
  Solubility: 9 µg/mL (≈ 20.4 µM)
[2]; Phares FaSSIF pH 6.5, 4 hr
  Solubility: 18 µg/mL (≈ 40.7 µM)
[2]; Phares FaSSIF pH 6.5, 24 hr
  Solubility: 10 µg/mL (≈ 22.6 µM)
[2]; Phares FeSSIF pH 6.5, 0.5 hr
  Solubility: 19 µg/mL (≈ 43 µM)
[2]; Phares FeSSIF pH 6.5, 4 hr
  Solubility: 24 µg/mL (≈ 54.3 µM)
[2]; Phares FeSSIF pH 6.5, 24 hr
  Solubility: 25 µg/mL (≈ 56.6 µM)
[2]; SGF (simulated gastric fluid), pH 1.6, simulated gastric fluid, SGF pH1.6, 0.5 hr
  solubility at 0.5 h: 715 µg/mL (≈ 1620 µM)
[2]; SGF (simulated gastric fluid), pH 1.6, simulated gastric fluid, SGF pH1.6, 4 hr
  solubility at 4 h: 808 µg/mL (≈ 1830 µM)
[2]; SGF (simulated gastric fluid), pH 1.6, simulated gastric fluid, SGF pH1.6, 24 hr
  solubility at 24 h: 842 µg/mL (≈ 1910 µM)
[2]; pH 2.0, 24 hr
  Solubility: 697 µg/mL (≈ 1580 µM)
[2]; pH 2, aqueous buffer, pH 2.0, 0.5 hr
  solubility at 0.5 h: 601 µg/mL (≈ 1360 µM)
[2]; pH 2, aqueous buffer, pH 2.0, 4 hr
  solubility at 4 h: 662 µg/mL (≈ 1500 µM)
[2]; pH 4.0, 0.5 hr
  Solubility: 21 µg/mL (≈ 47.5 µM)
[2]; pH 4.0, 4 hr
  Solubility: 23 µg/mL (≈ 52 µM)
[2]; pH 4.0, 24 hr
  Solubility: 24 µg/mL (≈ 54.3 µM)
[2]; pH 6, aqueous buffer, pH 6.0, 24 hr
  solubility at 24 h: 4 µg/mL (≈ 9.05 µM)
[2]; pH 8.0, 0.5 hr
  Solubility: 5 µg/mL (≈ 11.3 µM)
[2]; pH 8.0, 4 hr
  Solubility: 5 µg/mL (≈ 11.3 µM)
[2]; pH 8.0, 24 hr
  Solubility: 5 µg/mL (≈ 11.3 µM)
